Patent US8652838B2, “Platensimycin biosynthetic gene cluster of Streptomyces platensis” (Wisconsin Alumni Research Foundation, priority 2007, dated 2014)
≈ marks a conversion by molar mass, not a printed value. Like-named read-outs stand apart in the source and are kept apart here.

Experiments:
S. aureus infection = conditions: cited from earlier work
[1] = system: DNA, RNA, protein or cell wall biosynthesis; conditions: whole-cell labeling; cited from earlier work
FabF [2] = target: T1, FabF (Staphylococcus aureus, UniProt Q5TKS0); conditions: 14C-radiolabeled malonyl-CoA, polyacrylamide gel electrophoresis; cited from earlier work
T1 sequence (Q5TKS0 1-403): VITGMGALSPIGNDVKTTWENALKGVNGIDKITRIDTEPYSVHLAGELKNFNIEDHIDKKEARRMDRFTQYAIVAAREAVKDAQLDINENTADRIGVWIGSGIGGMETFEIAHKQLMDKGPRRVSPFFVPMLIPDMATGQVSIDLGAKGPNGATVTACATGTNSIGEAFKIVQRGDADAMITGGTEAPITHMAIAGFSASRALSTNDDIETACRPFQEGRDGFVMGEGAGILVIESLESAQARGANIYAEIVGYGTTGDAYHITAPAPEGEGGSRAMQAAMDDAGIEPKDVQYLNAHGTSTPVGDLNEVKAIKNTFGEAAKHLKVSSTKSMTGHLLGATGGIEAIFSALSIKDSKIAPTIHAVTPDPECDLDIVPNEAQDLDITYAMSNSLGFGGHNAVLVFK

Streptococcus pneumoniae = conditions: cited from earlier work
mammalian cell = conditions: cited from earlier work
[3] = system: lipid biosynthesis in S. aureus; conditions: whole-cell labeling; cited from earlier work
Streptomyces avermitilis = assay: paper disk susceptibility of S. avermitilis; format: cell-based; conditions: 0.5-4 μg on paper disk
Text: (§1) FIGS. 6A-C: Engineering of S. platensis. (FIG. 6A) Additional biosynthetic intermediates and shunt metabolites isolated from the wild-type S. platensis MA7327 strain. (FIG. 6B) Production of PTM (●) and PTN (♦) by the engineered S. platensis SB12002 (iv) and SB12001 (iii) strains with the wild-type S. platensis MA7327 as a control under two fermentation conditions for PTM (i) and PTM and PTN (ii) production. (FIG. 6C) Susceptibility of S. avermitilis and S. albus J1074 to PTM and PTN: 1, negative controls; 2, 4 μg; 3, 4 μg; 4, 2 μg; 5, 1 μg; 6, 0.5 μg of PTM or PTN on each paper disk.
(§2) Having large quantity (multiple grams) of PTM and PTN in hand from the overproducers, the inventors systematically examined the sensitivity of a battery of Streptomyces towards PTM or PTN. Remarkably, they have identified strains that are sensitive to both PTM and PTN, as exemplified by Streptomyces avermitilis, or PTN but not PTM, as exemplified by Streptomyces albus J1074 (FIG. 6C). The differential sensitivity of the organisms tested towards PTM and PTN is consistent with the established mode of action for PTM and PTN (i.e., PTM as a FabB/F inhibitor while PTN as a FabB/F and FabH dual inhibitor)—targeting two essential proteins should lead to lower resistance potential than targeting only one. […]

Escherichia coli = conditions: cited from earlier work
FabF [4] = target: T1, FabF; conditions: cited from earlier work
[5] = animal model studies; cited from earlier work
FabH [6] = target: T2, FabH (Staphylococcus aureus, UniProt Q8NXE2); conditions: cited from earlier work
T2 sequence (Q8NXE2 1-313): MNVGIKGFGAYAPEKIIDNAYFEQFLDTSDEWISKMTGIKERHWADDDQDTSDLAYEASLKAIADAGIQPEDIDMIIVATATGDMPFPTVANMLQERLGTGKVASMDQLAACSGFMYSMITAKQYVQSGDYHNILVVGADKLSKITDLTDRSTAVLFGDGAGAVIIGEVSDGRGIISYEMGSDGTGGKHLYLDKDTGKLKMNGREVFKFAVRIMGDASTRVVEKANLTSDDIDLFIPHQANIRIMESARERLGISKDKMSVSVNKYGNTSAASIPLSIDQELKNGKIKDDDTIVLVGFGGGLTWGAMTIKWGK

S. aureus = conditions: cited from earlier work
FabH [7] = target: T2, FabH; conditions: cited from earlier work; remark: listed apart in the source
S. platensis MA7327 = assay: antibiotic sensitivity of S. platensis MA7327; format: cell-based, Streptomyces platensis
Text: The inventors have developed an efficient genetic system for in vivo manipulation of PTM/PTN biosynthesis in S. platensis MA7327 via E. coli-S. platensis conjugation. […] Although S. platensis protoplasts can be readily prepared and regenerated with high frequency, introduction of either replicative or integrative plasmid into S. platensis via protoplast-mediated transformation has not been successful (Kieser et al., 2000).

[8] = system: vancomycin-resistant E. faecium; conditions: cited from earlier work
Streptomyces albus J1074 = assay: paper disk susceptibility of S. albus J1074; format: cell-based; conditions: 0.5-4 μg on paper disk
Text: as §1, §2

C[C@]12C[C@@]34C=CC(=O)[C@@](C)(CCC(=O)Nc5c(O)ccc(C(=O)O)c5O)C3[C@H](CC1C4)O2 (stereo partly shown) [PTM, platensimycin]
decrease of S. aureus infection (S. aureus infection; mouse, 100 μg/h intravenously with a continuous pump, over 24 hrs): 10^4-10^5 fold
concentration without inhibition of DNA, RNA, protein or cell wall biosynthesis [1]: > 500 µg/mL
preference for FabF inhibition relative to FabH inhibition (FabF [2]): 838 fold
minimal inhibitory concentration (Streptococcus pneumoniae): 2.5 µM (≈ 1.1 µg/mL)
mammalian cell toxicity (mammalian cell): Low
IC50 inhibition of lipid biosynthesis [3]: 0.1 µg/mL
sensitivity of Streptomyces avermitilis (Streptomyces avermitilis): sensitive
antibacterial activity (Escherichia coli; efflux-negative Escherichia coli): showed antibacterial activity
effectiveness against Gram-negative Escherichia coli (Escherichia coli; tolC dependent efflux): not very effective
antibacterial activity (Escherichia coli; wild-type E. coli): not against wild-type E. coli
greater potency than cerulenin as inhibitor of FabF (FabF [4]; relative to cerulenin): 200 fold
IC50 (FabF [4]; single enzyme inhibition assays): < 50 nM
pharmacokinetics [5]: exceedingly poor pharmacokinetics
inhibition of S. aureus FabH (FabH [6]): weak inhibition
minimal inhibitory concentration (S. aureus): 1 µM (≈ 0.441 µg/mL)
FabH inhibition (FabH [7]): does not inhibit FabH to any significant extent

CN[C@@H]1[C@@H](O[C@H]2O[C@H](CO)[C@@H](N)[C@H](O)[C@H]2O)OC2C[C@@H](N)[C@@H](O[C@H]3[C@H](O)[C@@H](O)[C@H](N)C[C@@H]3N)OC2[C@@H]1O (stereo partly shown) [apramycin]
concentration giving complete inhibition of growth (S. platensis MA7327): 25 µg/mL

CC[C@H]1OC(=O)[C@H](C)[C@@H](O[C@H]2C[C@@](C)(OC)[C@@H](O)[C@H](C)O2)[C@H](C)[C@@H](O[C@@H]2O[C@H](C)C[C@H](N(C)C)[C@H]2O)[C@](C)(O)C[C@@H](C)C(=O)[C@H](C)[C@@H](O)[C@]1(C)O [erythromycin]
concentration giving complete inhibition of growth (S. platensis MA7327): 10 µg/mL

NC[C@H]1O[C@H](O[C@H]2[C@H](O)[C@@H](O[C@H]3O[C@H](CO)[C@@H](O)[C@H](N)[C@H]3O)[C@H](N)C[C@@H]2N)[C@H](O)[C@@H](O)[C@@H]1O [kanamycin]
concentration giving complete inhibition of growth (S. platensis MA7327): 25 µg/mL

C=C1C[C@@]23C=CC(=O)[C@@](C)(CCC(=O)Nc4c(O)ccc(C(=O)O)c4O)[C@@H]2C[C@@H]1CC3 [platencin]
antibacterial activity compared to platensimycin [8]: increased antibacterial activity
reduction of S. aureus cfu in kidney (S. aureus infection; mouse, continuous infusion 150 μg/h, over 24 h): 3 log
in vivo efficacy (S. aureus infection; mouse, in vivo): potent in vivo efficacy
observed toxicity in vivo (S. aureus infection; mouse, in vivo): without any observed toxicity
antibacterial activity compared to platensimycin (Streptococcus pneumoniae; S. pneumoniae): decreased activity
sensitivity of Streptomyces avermitilis (Streptomyces avermitilis): sensitive
antibacterial activity compared to platensimycin (Escherichia coli; efflux-negative E. coli): increased antibacterial activity
sensitivity of Streptomyces albus J1074 (Streptomyces albus J1074): sensitive
pharmacokinetics [5]: exceedingly poor pharmacokinetics
FabH inhibition (FabH [7]): inhibits FabH

C=C(NC(=O)C(=C)NC(=O)c1csc(C2=N[C@@H]3c4csc(n4)[C@H]4NC(=O)c5csc(n5)[C@H]([C@](C)(O)[C@@H](C)O)NC(=O)[C@H]5CSC(=N5)/C(=C/C)NC(=O)[C@H]([C@@H](C)O)NC(=O)c5csc(n5)[C@]3(CC2)NC(=O)[C@H](C)NC(=O)C(=C)NC(=O)[C@H](C)NC(=O)[C@H]([C@@H](C)CC)N[C@@H]2C=Cc3c([C@H](C)O)cc(nc3[C@H]2O)C(=O)O[C@@H]4C)n1)C(N)=O [thiostrepton]
concentration giving complete inhibition of growth (S. platensis MA7327): 10 µg/mL

platensimycin [PTM]
clearing S. aureus infection from a mouse model (S. aureus infection; high doses): effective in clearing S. aureus infection
